This note sets out measurements from patent publication US20070224657A1, “Distribution of PON1 as a marker of lipid related disorders” (priority 2006, published 2007).

Read-outs that look alike come from different tables or passages of the source.

In assay [1] the target is T1, PON1 (Homo sapiens, UniProt P27169). The following applies: inhibitor or antibody (diluted 1:10, v:v) added to the fractions; data not shown.
Assay [2] concerns J774 A.1 macrophages. The assay can be described thus: Macrophage cholesterol efflux mediated by HDL or LPDS. The following applies: Mus musculus. The format is cell-based, murine.
Procedure: HDL and LPDS were isolated from 3 healthy subjects by ultracentrifugation. […] The cells were also incubated with HDL or LPDS fractions that were preincubated for 1 hour at 37° C. with the PON1 inhibitor 2-hydroxyquinoline (200 μM), or with HDL and LPDS that were enriched with evolved PON1 (50 paraoxonase U/ml). HDL or LPDS-mediated cholesterol efflux was then determined. Results are given as mean±S.D of three different experiments *p<0.01 vs. HDL, #p<0.01 vs. LPDS.
Cells: J774 A.1 murine macrophage cells were purchased from the American Tissue Culture Collection (ATCC, Rockville, Md.). The cells were grown in Dulbecco's modified Eagle's medium (DMEM) containing 5% FCS and 100 U penicillin/ml, 100 μg streptomycin/ml, and 2 mM glutamine.
Macrophage Cholesterol efflux determination: J774 A.1 macrophages were incubated with [^3H]-labeled cholesterol (2 μCi/ml) for 1 hour at 37° C., followed by cell wash in ice-cold PBS (×3) and a further incubation in the absence or presence of HDL or LPDS (5 paraoxonase units/ml)) for 3 hours at 37° C. […] Cellular and medium [^3H]-labeled cholesterol was quantitated and the percentage of cholesterol efflux was calculated [the ratio of [^3H]-label in the medium*100/([^3H]-label in the medium+[^3H]-label in the cells), 18]. […]
The target of assay [3] is T1, PON1. The following applies: inhibitor 200 μM.
Procedure: Arylesterase activity: Arylesterase activity was determined using 5 μl serum or 10 μl of the HDL or LPDS fraction in a total volume of 1 ml of 50 mM Tris-HCL, pH 8.0 containing 1 mM CaCl2 and 1 mM phenyl acetate. The increase in OD at 270 nm was monitored for 1 minute. One unit is defined as 1 μmol of phenyl actetate hydrolyzed per ml per minute (26).

T1 sequence (P27169 whole entry): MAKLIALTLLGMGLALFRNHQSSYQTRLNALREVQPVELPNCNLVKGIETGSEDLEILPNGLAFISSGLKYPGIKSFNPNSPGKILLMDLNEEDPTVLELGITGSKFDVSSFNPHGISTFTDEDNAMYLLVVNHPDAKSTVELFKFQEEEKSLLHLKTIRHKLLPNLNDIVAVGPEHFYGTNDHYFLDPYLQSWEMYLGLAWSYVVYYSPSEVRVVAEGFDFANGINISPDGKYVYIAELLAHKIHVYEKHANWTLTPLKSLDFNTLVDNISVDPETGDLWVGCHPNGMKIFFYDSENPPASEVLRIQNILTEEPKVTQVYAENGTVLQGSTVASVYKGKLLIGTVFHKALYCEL

Take `Oc1ccc2ccccc2n1` [2-hydroxyquinoline]: the “paraoxonase activities in HDL and LPDS” value in assay [1] is recorded as “significantly reduced”. Moreover, the inhibition at 200 µM in assay [2] (J774.A1, read-out: reduction of cholesterol efflux by HDL preincubated with the inhibitor) was determined as 25%; in assay [2] (J774.A1, inhibitor 200 μM, vs non-treated LPDS, read-out: reduction of cholesterol efflux by LPDS preincubated with the inhibitor), 10%. The “reduction in HDL arylesterase activity” value in assay [3] (HDL fraction) was found to be 60%. Moreover, the “HDL arylesterase activity with inhibitor” value in assay [3] (HDL fraction, without inhibitor 22.4±1.5) came to 9.0±1.0 units/ml. Further, the “reduction in LPDS arylesterase activity” value in assay [3] (LPDS fraction) amounted to 76%. Besides, in assay [3] (LPDS fraction, without inhibitor 2.9±0.5), the “LPDS arylesterase activity with inhibitor” value is listed as 0.7±0.7 units/ml.
